From patent EP0156347A2, “Glycosides of resofurin derivatives, method for their preparation and their use in the determination of the activity of glycosidases” (BOEHRINGER MANNHEIM GMBH, priority 1984, dated 1985) come the findings set out here.

Format in all cases: biochemical
The test system of assay [1] is α-Amylase. Nature of the assay: Determination of α-Amylase activity with reagent paper (Beispiel 21). The following applies: filter paper soaked with substrate in Citratpuffer pH 6; sample with amylase plus α- and ß-Glucosidase; after a few minutes. The source says:
Bestimmung der α-Amylase-Aktivität
Filterpapier wird mit Resorufin-maltoheptaosid (hergestellt gemäß Beispiel 17), gelöst in Citratpuffer, pH 6, getränkt. Das so ernaltene Reagenzpapier wird nacheinander mit der d-Amylase enthaltenden Probe sowie mit a- und ß-Glucosidase versetzt.
Mit Hilfe von Proben mit bekannter d-Amylase-Konzentration läßt sicn eine Eichkurve ermitteln, anhand derer der uhbekannte d-Amylase-Genalt einer Probe bestimmt werden Kann.

Assay [2] deals with ß-D-Galaktosidase (Escherichia coli, UniProt P00722). Nature of the assay: Kinetics of the enzymatic hydrolysis (Michaelis-Menten). The source says:
Bei der Synthese der Glycoside der Resorufin-Derivate der allgemeinen Formel II entstehen nicht-fluoreszierende Verbindungen, aus denen durch enzymatische Spaltung mit Hilfe der entsprechenden Glycosidasen wieder die fluoreszierenden Resorufin-Derivate freigesetzt werden. Die erfindungsgemäßen fluorogenen Resorufin-nerivate besitzen im Vergleich zu den bisher bekannten Glycosiden anderer chromogener bzw. fluorogener Gruppen sehr vorteilhafte Eigenschaften. Als monosubstituierte Derivate weisen sie eine Kinetik der enzymatischen Hydrolyse auf, die sehr einfach durch die Michaelis-Menten-Beziehung beschrieben werden kann. Für das Resorufin-ß-D-galactopyranosid gilt beispielsweise eine Michaelis-Konstante KM = 0,38 mmol/1. Die Hemmung dieser Hydrolyse durch das natürliche Substrat Lactose ist kompetitiv, so daß für bestimmte Untersuchungen der spezifische Umsatz von Glycosiden der Resorufin-Derivate durch Zugabe von natürlichen Glycosiden, wie Lactose im Falle der ß-D-Galaktosidase, definiert und reversibel verändert werden kann.

The target in assay [3] is T1, freie ß-D-Galactosidase (Escherichia coli, UniProt P00722).
T1 construct: purchased
T1 sequence (P00722 2-1024): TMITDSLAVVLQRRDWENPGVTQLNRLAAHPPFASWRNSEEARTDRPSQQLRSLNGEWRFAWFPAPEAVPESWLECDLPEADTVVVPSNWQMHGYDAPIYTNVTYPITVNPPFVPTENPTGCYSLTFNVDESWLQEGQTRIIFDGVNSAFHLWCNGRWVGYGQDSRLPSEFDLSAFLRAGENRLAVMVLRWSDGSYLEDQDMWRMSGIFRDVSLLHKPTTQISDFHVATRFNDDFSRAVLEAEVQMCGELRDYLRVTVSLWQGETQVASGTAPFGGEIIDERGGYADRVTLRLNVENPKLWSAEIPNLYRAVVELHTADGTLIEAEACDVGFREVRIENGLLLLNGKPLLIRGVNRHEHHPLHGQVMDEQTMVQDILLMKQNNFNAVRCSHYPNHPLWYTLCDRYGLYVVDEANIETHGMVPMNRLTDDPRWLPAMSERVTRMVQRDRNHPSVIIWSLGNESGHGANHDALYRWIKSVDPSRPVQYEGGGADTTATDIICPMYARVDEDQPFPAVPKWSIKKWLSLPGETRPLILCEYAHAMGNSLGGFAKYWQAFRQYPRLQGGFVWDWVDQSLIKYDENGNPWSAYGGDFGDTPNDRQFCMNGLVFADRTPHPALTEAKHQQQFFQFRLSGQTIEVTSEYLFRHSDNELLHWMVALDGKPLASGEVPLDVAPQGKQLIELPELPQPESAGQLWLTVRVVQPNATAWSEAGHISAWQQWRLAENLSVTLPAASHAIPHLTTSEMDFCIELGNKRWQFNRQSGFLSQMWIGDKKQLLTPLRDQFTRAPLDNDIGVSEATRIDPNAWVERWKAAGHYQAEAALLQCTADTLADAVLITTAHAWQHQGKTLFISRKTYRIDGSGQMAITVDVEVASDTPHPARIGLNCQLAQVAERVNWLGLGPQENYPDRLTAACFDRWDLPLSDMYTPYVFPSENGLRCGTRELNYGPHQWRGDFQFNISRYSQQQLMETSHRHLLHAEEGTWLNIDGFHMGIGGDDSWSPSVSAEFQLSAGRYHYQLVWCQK
Briefly: Determination of the activity of free ß-D-Galactosidase, photometric at 578 nm (Beispiel 20). The following applies: 0,8 mmol/l substrate, 950 ul Reagenslösung + 50 ul Enzymlösung (ca. 0,08 U/ml), 37° C. The procedure: (§1) Bestimmung der Aktivität freier und konjugierter ß-D-Galactosidase
(§2) Reagenslösung: • In vorstehend beschriebener Pufferlösung werden 0,8 mmol/1 Resorufin-ß-D-galactopyranosid gelöst.
Enzymlösung: • Handelsübliche ß-D-Galactosidase aus Escherichia coli wird in Puffer gelöst. Die Aktivität dieser Lösung beträgt ca. 0,08 U/ml (bezogen auf die Hersteller-Angaben).
(§3) Die Messung erfolgt photometrisch bei 578 nm. 950 ul Reagenslösung werden jeweils in einer 1-cm-Küvette bei 37 °C mit 50 ul Enzymlösung bzw. mit 50 ul Enzym-Konjugat-Lösung vermischt. Als Maß für die Reaktion wird der Extinktionsanstieg pro Zeiteinheit in [mExt/min] ermittelt.

Assay [4] deals with T2, ß-D-Galactosidase (Escherichia coli, UniProt P00722). Briefly: Determination of ß-D-Galactosidase activity, photometric at 579 nm (Beispiel 18). Set-up: purchased. The following applies: Extinktionsanstieg pro Zeiteinheit, 950 ul Reagens + 50 ul Enzymlösung (ca. 0,08 U/ml), 37° C, pH 7,3, substrate 0,8 / 3,5 / 1,0 mmol/l in Reagens 1 / 2 / 3. The source says: Bestimmung der Aktivität der ß-D-Galactosidase
T2 sequence (P00722 2-1024): as above
In der vorstehend beschriebenen Pufferlösung werden 0,8 mmol/1 Resorufin-ß-D-galactopyranosid gelöst.
In der vorstehend beschriebenen Pufferlösung werden 3,5 mmol/1 Resorufin-9-carbonsäure-ß-D-galactopyranosid gelöst.
In der vorstehend beschriebenen Pufferlösung werden 1,0 mmol/1 Resorufin-9-carbonsäuremethylester-ß-D-galactopyranosid gelöst.
Handelsübliche ß-D-Galactosidase aus Escherichia coli wird in der vorstehend genannten Pufferlösung gelöst. Die AKtivität dieser Lösung beträgt ca. 0,08 U/ml (bezogen auf die Hersteller-Angaben).
Die Messung erfolgt photometrisch bei 579 nm.
950 ul Reagens werden in einer 1-cm-Küvette bei 37° C mit 50 ul Enzymlösung vermischt. Als Maß für die Reaktion wird der Extinktionsanstieg pro Zeiteinneit in [mExt/min] ermittelt. Er wird berechnet aus der gemessenen Extinktion durch Division mit der ReaKtionszeit.

In assay [5] the target is ß-D-Galactosidase-Antikörper-Konjugat (Escherichia coli, UniProt P00722). Nature of the assay: Determination of the activity of conjugated ß-D-Galactosidase, photometric at 578 nm (Beispiel 20). The following applies: 0,8 mmol/l substrate, 950 ul Reagenslösung + 50 ul Enzym-Konjugat-Lösung, 37° C.
Chain of ß-D-Galactosidase-Antikörper-Konjugat (P00722 2-1024): as above
Excerpt: as §1, §2
Enzym-Konjugat-Lösung: • Verwendet wird ein ß-D-Galactosidase-Antikörper-Präparat. Die Herstellung solcher Enzym-Antikörper-Konjugate ist bekannt. Sie ist beispielsweise in Biochem. Biophys. Acta 612, 40 - 49 (1980) beschrieben. Das Präparat wird in Puffer so verdünnt, daß sich eine mit der oben beschriebenen Enzymlösung ungefähr vergleichbare Aktivität ergibt.
as §3

Assay [6] concerns the target T2, ß-D-Galactosidase. Nature of the assay: Detection of ß-D-Galactosidase with an indicator film / test strip (Beispiel 19). Particulars: test strip containing the substrate, dipped in ß-D-Galactosidase solution; 2 Minuten bei Raumtemperatur. The procedure: Nachweis von ß-D-Galactosidase mit Hilfe eines Indlkatorfilms
Zu einer nomogenen Masse werden verarbeitet: • 5 ml einer wäßrigen Lösung mit 0,5 M Kaliumphosphat und • 0,05 M Magnesiumchlorid, pH 7,3 . • 0,13 g Natriumalginat • 8 g einer 50 %igen Dispersion von Polyvinylpropionat • 10 g Kieselgel • 12 ml Wasser • 0,4 g Triton X-100 • 50 mg Resorufin-ß-D-galactopyranosid, in 5 ml Methanol gelöst.
Diese Masse wird auf eine 0,1 mm starke Polycarbonatfolie (poKalon, Fa. Lonza) mit einer Spaltbreite von 0,2 mm aufgetragen. Die Beschichtung wird bei 50° C getrocknet und danach in Stücke von 6 auf 6 mm geschnitten. Diese werden mit Hilfe von Klebeband auf eine 400 um starke Polystyrolfolie aufgeklebt.
Die so erhaltenen Teststreifen werden kurze Zeit in die zu prüfende, ß-D-Galactosidase enthaltende Lösung getaucht. […] Mit Hilfe von Testlösungen mit einem bestimmten, bekannten ß-D-Galactosidase-Gehalt kann man eine Farbskala erhalten, anhand derer der unbekannte Genalt an ß-D-Galactosidase in einer Probe ermittelt werden kann.

Chain of ß-D-Galaktosidase (P00722 2-1024): as above

`O=c1ccc2nc3ccc(OC4OC(CO)C(OC5OC(CO)C(OC6OC(CO)C(OC7OC(CO)C(OC8OC(CO)C(OC9OC(CO)C(OC%10OC(CO)C(O)C(O)C%10O)C(O)C9O)C(O)C8O)C(O)C7O)C(O)C6O)C(O)C5O)C(O)C4O)cc3oc-2c1` (stereo not drawn) [Beispiel 17, Resorufin-maltoheptaosid]: the Rotfärbung result in assay [1] is given as “deutlich sicntbare Rotfärbung”.
Consider `OC[C@H]1O[C@@H](O[C@H]2[C@H](O)[C@@H](O)C(O)O[C@@H]2CO)[C@H](O)[C@@H](O)[C@H]1O` (stereo partly drawn) [Lactose, reference compound], for which the “Hemmung dieser Hydrolyse” value in assay [2] (inhibition of the hydrolysis of Resorufin-ß-D-galactopyranosid by the natural substrate) is recorded as “kompetitiv”.
As usually defined, the Km is the concentration of substrate that gives half-maximal velocity. In the case of `O=c1ccc2nc3ccc(O[C@@H]4O[C@H](CO)[C@H](O)[C@H](O)[C@H]4O)cc3oc-2c1` [Reagens 1, Resorufin-ß-D-galactopyranosid], the “Extinktionsanstieg pro Zeiteinheit, Reaktion mit der freien ß-D-Galactosidase” value in assay [3] is 85 mExt/min. For the same compound, the Km in assay [2] (read-out: Michaelis-Konstante KM, enzymatic hydrolysis of the substrate) was 380 µM. In assay [4], the Reaktion amounted to 85 mExt/min. The “Extinktionsanstieg pro Zeiteinheit, Reaktion mit ß-D-Galactosidase-Antikörper-Konjugat” value in assay [5] turned out to be 92 mExt/min. In assay [6], the Reaktionsfarbe entry was “rote Reaktionsfarbe”.
Take “Resorufin-1-carbonsäuremethylester [Beispiel 3]”: in assay [4], the Reaktion was 76 mExt/min.
With Resorufin-ß-D-glucosid [Beispiel 2], in assay [4], the Reaktion was determined as 46 mExt/min.
